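Following 48 hours of exposure in 96-well plates, responses at five concentrations were used to interpolate endpoints linearly. Here, GI50 denotes the concentration required for 50% inhibition of growth. TGI: concentration producing complete growth inhibition.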
Columns and labels:
Assay in all cases: NCI tumour cell line growth inhibition, 48 h
OVCAR-4 ovarian = test system: OVCAR-4 ovarian
HS 578T breast = test system: HS 578T breast
SK-MEL-5 melanoma = test system: SK-MEL-5 melanoma
DU-145 prostate = test system: DU-145 prostate
A549 NSCLC = test system: A549 NSCLC
SK-MEL-2 melanoma = test system: SK-MEL-2 melanoma
COLO 205 colon = test system: COLO 205 colon
SNB-75 CNS = test system: SNB-75 CNS
HOP-62 NSCLC = test system: HOP-62 NSCLC
SF-539 CNS = test system: SF-539 CNS
PC-3 prostate = test system: PC-3 prostate
LOX IMVI melanoma = test system: LOX IMVI melanoma
CCRF-CEM leukemia = test system: CCRF-CEM leukemia
OVCAR-8 ovarian = test system: OVCAR-8 ovarian
ACHN renal = test system: ACHN renal
HL-60(TB) leukemia = test system: HL-60(TB) leukemia
MCF7 breast = test system: MCF7 breast
M14 melanoma = test system: M14 melanoma
SNB-19 CNS = test system: SNB-19 CNS
BT-549 breast = test system: BT-549 breast
SF-295 CNS = test system: SF-295 CNS
IGROV1 ovarian = test system: IGROV1 ovarian
RPMI-8226 leukemia = test system: RPMI-8226 leukemia
A498 renal = test system: A498 renal
SN12C renal = test system: SN12C renal
MOLT-4 leukemia = test system: MOLT-4 leukemia
UO-31 renal = test system: UO-31 renal
SK-OV-3 ovarian = test system: SK-OV-3 ovarian
MDA-MB-435 = test system: MDA-MB-435
TK-10 renal = test system: TK-10 renal
SR leukemia = test system: SR leukemia
SW-620 colon = test system: SW-620 colon
HT29 colon = test system: HT29 colon
MALME-3M melanoma = test system: MALME-3M melanoma
HCC-2998 colon = test system: HCC-2998 colon
HOP-92 NSCLC = test system: HOP-92 NSCLC
OVCAR-3 ovarian = test system: OVCAR-3 ovarian
NCI-H23 lung = test system: NCI-H23 lung
UACC-257 melanoma = test system: UACC-257 melanoma
EKVX NSCLC = test system: EKVX NSCLC
OVCAR-5 ovarian = test system: OVCAR-5 ovarian
SF-268 CNS = test system: SF-268 CNS
T-47D breast = test system: T-47D breast
786-0 renal = test system: 786-0 renal
NCI-H522 lung = test system: NCI-H522 lung
U251 CNS = test system: U251 CNS
MDA-MB-231 breast = test system: MDA-MB-231 breast
HCT-15 colon = test system: HCT-15 colon
NCI/ADR-RES ovarian = test system: NCI/ADR-RES ovarian
UACC-62 melanoma = test system: UACC-62 melanoma
NCI-H226 lung = test system: NCI-H226 lung
CAKI-1 renal = test system: CAKI-1 renal
KM12 colon = test system: KM12 colon
HCT-116 colon = test system: HCT-116 colon
SK-MEL-28 melanoma = test system: SK-MEL-28 melanoma
RXF 393 renal = test system: RXF 393 renal
K-562 leukemia = test system: K-562 leukemia

Question: Which results are given for `COc1cccc2c1C(=O)c1c(O)c3c(c(O)c1C2=O)C[C@@](O)(C(C)=O)C[C@@H]3O[C@H]1C[C@H](N)[C@H](O)[C@H](C)O1`?
Answer: GI50 (OVCAR-4 ovarian): 128 nM; TGI (OVCAR-4 ovarian): 1060 nM; GI50 (HS 578T breast): 120 nM; TGI (HS 578T breast): 1820 nM; GI50 (SK-MEL-5 melanoma): 48.8 nM; TGI (SK-MEL-5 melanoma): 143 nM; GI50 (DU-145 prostate): 68.7 nM; TGI (DU-145 prostate): 340 nM; GI50 (A549 NSCLC): 42.7 nM; TGI (A549 NSCLC): 201 nM; GI50 (SK-MEL-2 melanoma): 158 nM; TGI (SK-MEL-2 melanoma): 506 nM; GI50 (COLO 205 colon): 52.4 nM; TGI (COLO 205 colon): 655 nM; GI50 (SNB-75 CNS): 39.1 nM; TGI (SNB-75 CNS): 359 nM; GI50 (HOP-62 NSCLC): 53 nM; TGI (HOP-62 NSCLC): 263 nM; TGI (SF-539 CNS): 546 nM; GI50 (PC-3 prostate): 108 nM; TGI (PC-3 prostate): 975 nM; TGI (LOX IMVI melanoma): 107 nM; GI50 (CCRF-CEM leukemia): 22.8 nM; TGI (CCRF-CEM leukemia): 293 nM; GI50 (OVCAR-8 ovarian): 41.6 nM; TGI (OVCAR-8 ovarian): 1090 nM; GI50 (ACHN renal): 45.2 nM; TGI (ACHN renal): 395 nM; GI50 (HL-60(TB) leukemia): 31.2 nM; TGI (HL-60(TB) leukemia): 358 nM; GI50 (MCF7 breast): 19.5 nM; TGI (MCF7 breast): 2040 nM; GI50 (M14 melanoma): 118 nM; TGI (M14 melanoma): 653 nM; GI50 (SNB-19 CNS): 36.1 nM; TGI (SNB-19 CNS): 1350 nM; GI50 (BT-549 breast): 153 nM; TGI (BT-549 breast): 924 nM; GI50 (SF-295 CNS): 42.8 nM; TGI (SF-295 CNS): 245 nM; GI50 (IGROV1 ovarian): 60.9 nM; TGI (IGROV1 ovarian): 2580 nM; GI50 (RPMI-8226 leukemia): 90.2 nM; TGI (RPMI-8226 leukemia): 327 nM; TGI (A498 renal): 896 nM; GI50 (SN12C renal): 41.6 nM; TGI (SN12C renal): 451 nM; GI50 (MOLT-4 leukemia): 16.5 nM; TGI (MOLT-4 leukemia): 117 nM; GI50 (UO-31 renal): 175 nM; TGI (UO-31 renal): 1260 nM; GI50 (SK-OV-3 ovarian): 88.7 nM; TGI (SK-OV-3 ovarian): 1320 nM; GI50 (MDA-MB-435): 137 nM; TGI (MDA-MB-435): 672 nM; GI50 (TK-10 renal): 93.6 nM; TGI (TK-10 renal): 793 nM; GI50 (SR leukemia): 7.24 nM; TGI (SR leukemia): 188 nM; GI50 (SW-620 colon): 35.5 nM; TGI (SW-620 colon): 855 nM; GI50 (HT29 colon): 50.7 nM; TGI (HT29 colon): 337 nM; TGI (MALME-3M melanoma): 235 nM; GI50 (HCC-2998 colon): 99.2 nM; TGI (HCC-2998 colon): 475 nM; GI50 (HOP-92 NSCLC): 29.6 nM; TGI (HOP-92 NSCLC): 276 nM; GI50 (OVCAR-3 ovarian): 125 nM; TGI (OVCAR-3 ovarian): 777 nM; GI50 (NCI-H23 lung): 59.4 nM; TGI (NCI-H23 lung): 262 nM; TGI (UACC-257 melanoma): 426 nM; GI50 (EKVX NSCLC): 360 nM; TGI (EKVX NSCLC): 2630 nM; GI50 (OVCAR-5 ovarian): 155 nM; TGI (OVCAR-5 ovarian): 2260 nM; GI50 (SF-268 CNS): 54.8 nM; TGI (SF-268 CNS): 585 nM; GI50 (T-47D breast): 40.8 nM; TGI (T-47D breast): 312 nM; GI50 (786-0 renal): 68.5 nM; TGI (786-0 renal): 517 nM; GI50 (NCI-H522 lung): 36.2 nM; TGI (NCI-H522 lung): 163 nM; GI50 (U251 CNS): 38.1 nM; TGI (U251 CNS): 217 nM; GI50 (MDA-MB-231 breast): 201 nM; TGI (MDA-MB-231 breast): 2750 nM; TGI (HCT-15 colon): 5690 nM; GI50 (NCI/ADR-RES ovarian): 1230 nM; TGI (NCI/ADR-RES ovarian): 9040 nM; GI50 (UACC-62 melanoma): 59.8 nM; TGI (UACC-62 melanoma): 205 nM; GI50 (NCI-H226 lung): 53.2 nM; TGI (NCI-H226 lung): 119 nM; GI50 (CAKI-1 renal): 229 nM; TGI (CAKI-1 renal): 1530 nM; GI50 (KM12 colon): 96 nM; TGI (KM12 colon): 497 nM; GI50 (HCT-116 colon): 28.6 nM; TGI (HCT-116 colon): 216 nM; GI50 (SK-MEL-28 melanoma): 132 nM; TGI (SK-MEL-28 melanoma): 680 nM; GI50 (RXF 393 renal): 92.4 nM; TGI (RXF 393 renal): 341 nM; GI50 (K-562 leukemia): 51.3 nM; TGI (K-562 leukemia): 868 nM
